Measured values as given in the supplement of paper PMC4121296.

Columns and labels:
Conditions in all cases: exposure: 5-72 hpf
[1] = system: Danio rerio embryo (fli1:egfp); experiment: heart rate at 72 hpf (beats per minute); higher = faster heart rate
Protocol: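 fli1:egfp zebrafish embryos exposed 5-72 hpf to chemical (0.05-50 µM, 0.1% DMSO) in 384-well plates; heart rate at 72 hpf quantified from stream acquisitions by semi-automated MetaXpress journal (peak counting); only embryos in concentrations passing survival/body-length criteria analyzed.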

[2] = system: Danio rerio embryo (fli1:egfp); experiment: arterial (dorsal aorta) circulation score at 72 hpf (normalized DA-Max (arbitrary units)); higher = more circulation
Protocol: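 fli1:egfp zebrafish embryos exposed 5-72 hpf to chemical (0.05-50 µM, 0.1% DMSO); arterial circulation at 72 hpf quantified from stream acquisitions of the dorsal aorta by FFT-based analysis (DA-Max, normalized dorsal aorta signal); only concentrations passing survival/body-length criteria analyzed.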

[3] = system: Danio rerio embryo (fli1:egfp); experiment: intersegmental vessel area normalized to body length at 72 hpf (ISV area / body length (normalized units)); higher = more vessel area
Protocol: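 fli1:egfp zebrafish embryos exposed 5-72 hpf to chemical (0.05-50 µM, 0.1% DMSO); intersegmental vessel (ISV) eGFP area quantified by MetaXpress journal at 72 hpf and normalized to body length.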

[4] = system: Danio rerio embryo (fli1:egfp); experiment: body length at 72 hpf (µm); higher = longer body (less growth inhibition)
Protocol: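 Transgenic fli1:egfp zebrafish embryos (one per well, 384-well plate) exposed statically from 5 to 72 hpf at 28 °C to chemical (0.05-50 µM, 0.1% DMSO); at 72 hpf anesthetized and imaged on ImageXpress; body length of live, hatched, correctly oriented embryos measured by automated MetaXpress journal. Dead/unhatched/misoriented embryos have no value.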

[5] = system: Danio rerio embryo (fli1:egfp); experiment: pericardial area at 72 hpf (image area units (not stated)); higher = larger pericardial area (edema)
Protocol: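 fli1:egfp zebrafish embryos exposed 5-72 hpf to chemical (0.05-50 µM, 0.1% DMSO); pericardial area at 72 hpf measured by semi-automated MetaXpress journal (increase indicates edema).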

CO/N=C(/C1=NOCCO1)c1ccccc1Oc1ncnc(Oc2ccccc2Cl)c1F [Fluoxastrobin]
Conditions | arterial, [2] | body length at 72 hpf, [4] | heart rate at 72 hpf, [1] | intersegmental vessel area normalized, [3] | pericardial area at 72 hpf, [5]
0.0061 µM | 13.7 | 2970 | 182 | 70.3 | 12700
0.0122 µM | 15 | 2930 | 189 | 71.6 | 14000
0.0244 µM | 11.9 | 2900 | 188 | 76 | 13500
0.05 µM | 15.2 | 2970 | 194 | 79.4 | 14300
0.098 µM | 12.6 | 2980 | 198 | 82.8 | 14900
0.195 µM | 16.2 | 2990 | 198 | 75.3 | 14200
0.39 µM | 13.1 | 2970 | 194 | 77.9 | 15000
0.78 µM | 13.9 | 2940 | 191 | 67.2 | 13900
1.56 µM | 12.1 | 2910 | 177 | 80.3 | 17100
3.125 µM | 6.76 | 3010 | 161 | 64.8 | 28800

COC(=O)N(C(=O)N1CO[C@@]2(C(=O)OC)Cc3cc(Cl)ccc3C2=N1)c1ccc(OC(F)(F)F)cc1 [Indoxacarb]
Conditions | arterial, [2] | body length at 72 hpf, [4] | heart rate at 72 hpf, [1] | intersegmental vessel area normalized, [3] | pericardial area at 72 hpf, [5]
0.05 µM | 9.56 | 2980 | 169 | 81.5 | 14200
0.098 µM | 10.3 | 3010 | 171 | 81.7 | 13400
0.195 µM | 10.5 | 2970 | 176 | 85.7 | 15600
0.39 µM | 8.96 | 2950 | 183 | 80.7 | 13200
0.78 µM | 8.19 | 2990 | 185 | 80.1 | 14100
1.56 µM | 10.8 | 2960 | 181 | 85.1 | 12300
3.125 µM | 9.26 | 3010 | 194 | 83.8 | 12700
6.25 µM | 10.5 | 3020 | 188 | 87.7 | 13000
12.5 µM | 14.1 | 2900 | 181 | 70.6 | 14200
